In patent US8476274B2, “Biaryl spiroaminooxazoline analogues as Alpha2C adrenergic receptor modulators” (Merck Sharp & Dohme Corp., priority 2008, dated 2013):

target: T1, α2C receptor (Homo sapiens, UniProt P18825); test: binding inhibition (Ki) at the α2C receptor; details: compounds classed as α2C antagonists; read-out: Ki at the α2C receptor subtype
T1 sequence (P18825 1-462): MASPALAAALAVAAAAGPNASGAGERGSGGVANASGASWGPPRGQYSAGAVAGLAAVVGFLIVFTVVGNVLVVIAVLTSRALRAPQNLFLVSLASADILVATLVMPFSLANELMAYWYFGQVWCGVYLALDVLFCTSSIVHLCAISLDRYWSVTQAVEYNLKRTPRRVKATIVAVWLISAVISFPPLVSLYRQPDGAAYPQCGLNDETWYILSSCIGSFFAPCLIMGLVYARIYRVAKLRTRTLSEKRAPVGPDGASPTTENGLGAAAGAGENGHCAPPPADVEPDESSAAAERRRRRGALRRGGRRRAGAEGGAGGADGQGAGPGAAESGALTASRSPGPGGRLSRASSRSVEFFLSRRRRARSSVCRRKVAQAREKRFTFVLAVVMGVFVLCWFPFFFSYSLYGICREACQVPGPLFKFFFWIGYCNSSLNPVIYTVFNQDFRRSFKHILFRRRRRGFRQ
Description: A compound is defined to be an antagonist of the alpha-2C receptor if the compounds's efficacy at the α2C receptor is <30% Emax (GTPγS assay) and the binding inhibition of at the α2C receptor (Ki) is <500 nM, preferably <200 nM, and most preferably <20 nM.
Efficacy agonist activity values (Emax, GTPγS assay) for α2A and α2C were determined by following the general procedure detailed by Umland et. al (“Receptor reserve analysis of the human α2c-adrenoceptor using [^35S]GTPγS and cAMP functional assays” European Journal of Pharmacology 2001, 411, 211-221). For the purposes of the present invention, a compound is defined to be a specific or at least functionally selective agonist of the α2C receptor subtype if the compound's efficacy at the α2C receptor is ≧30% Emax (GTPγS assay) and its efficacy at the α2A receptor is 35% Emax (GTPγS assay). Additionally, for the purposes of this invention, a compound is defined to be an antagonist of the α2C receptor subtype if the compound's efficacy at the α2C receptor is <30% Emax (GTPγS assay) and the Ki at the α2C receptor subtype was <500 nM, preferentially <200 nM, and most preferentially <20 nM.

Ki, < 200 nM:
NC1=NC2(CCc3cccc(-c4ccccc4)c3C2)CO1 (racemic) [(±)-1G], CN(C)c1ncc(-c2cccc3c2CC2(CC3)COC(N)=N2)cn1 (racemic) [(±)-3], N#Cc1cccc(-c2cccc3c2CC2(CC3)COC(N)=N2)c1 (racemic) [(±)-6J], N#Cc1ccc(-c2cccc3c2CC2(CC3)COC(N)=N2)cc1 (racemic) [(±)-6K], Cn1nccc1-c1cccc2c1CC1(CC2)COC(N)=N1 (racemic) [(±)-6L], NC1=NC2(CO1)Cc1ccc(-c3ccccc3)cc1C2 (racemic) [(±)-8E], NC1=NC2(CO1)Cc1ccc(-c3cccnc3)cc1C2 (racemic) [(±)-8I], Cn1nccc1-c1ccc2c(c1)CC1(COC(N)=N1)C2 (racemic) [(±)-8R], Cc1noc(C)c1-c1ccc2c(c1)CC1(COC(N)=N1)C2 (racemic) [(±)-8S], NC1=NC2(CO1)Cc1ccc(-c3cncnc3)cc1C2 (racemic) [(±)-8], Cc1ncnc(C)c1-c1ccc2c(c1)CC1(CC2)COC(N)=N1 (racemic) [(±)-10B], NC1=NC2(CCc3ccc(-c4cccnn4)cc3C2)CO1 (racemic) [(±)-11], COc1ccc(-c2cncnc2)c2c1CCC1(COC(N)=N1)C2 (racemic) [(±)-16], NC1=NC2(CO1)Cc1cccc(-c3cn[nH]c3)c1C2 (racemic) [(±)-50K], Cc1n[nH]c(C)c1-c1cccc2c1CC1(COC(N)=N1)C2 (racemic) [(±)-50L], Cc1noc(C)c1-c1cccc2c1CC1(COC(N)=N1)C2 (racemic) [(±)-50M], NC1=NC2(CCO1)CCc1c(cccc1-c1cncnc1)C2 (racemic) [(±)-57], CC1CC2(COC(N)=N2)Cc2cccc(-c3cncnc3)c21 (racemic) [(±)-58], Cc1n[nH]c(C)c1-c1ccc2c(c1)CC1(CC2)COC(N)=N1 (racemic) [(±)-101], COc1cncc(-c2cccc3c2CC2(CC3)COC(N)=N2)c1 (racemic) [(±)-112], Cc1noc(C)c1-c1cccc2c1CC1(CC2)COC(N)=N1 (racemic) [(±)-113], Cc1n[nH]c(C)c1-c1cccc2c1CC1(CC2)COC(N)=N1 (racemic) [(±)-114], NC1=NC2(CCc3c(cccc3-c3cncs3)C2)CO1 (racemic) [(±)-129], COc1ncc(-c2cccc3c2CCC2(COC(N)=N2)C3)cn1 (racemic) [(±)-133], NC1=N[C@]2(CCc3cc(Br)ccc3C2)CO1 (racemic) [(±)-340], NC1=N[C@@]2(CCc3c(cccc3-c3ccoc3)C2)CO1 [Compound 21I], Cn1nccc1-c1cccc2c1CC[C@]1(COC(N)=N1)C2 [Compound 21J], NC1=N[C@@]2(CCc3c(cccc3-c3cccnc3)C2)CO1 [Compound 21K], NC1=N[C@]2(CCc3c(cccc3-c3cncs3)C2)CO1 [Compound 119], NC1=N[C@@]2(CCc3ccc(-c4cncnc4)cc3C2)CO1 [Compound 142], NC1=N[C@@]2(CCc3cccc(-c4ccccc4)c3C2)CO1 [Compound 143], NC1=N[C@@]2(CCc3cccc(-c4cccnc4)c3C2)CO1 [Compound 145], NC1=N[C@]2(CCc3cccc(-c4cncnc4)c3C2)CO1 [Compound 149], Cc1ccncc1-c1cccc2c1C[C@]1(CC2)COC(N)=N1 [Compound 150], Cc1ccncc1-c1cccc2c1C[C@@]1(CC2)COC(N)=N1 [Compound 151], CC1=N[C@@]2(CCc3c(cccc3-c3cncnc3)C2)CN1 [Compound 213], NC1=N[C@@]2(CCc3c(cccc3-c3ccco3)C2)CN1 [Compound 238]
